The values below come from patent US6444217B1, “Drug delivery devices, and methods of use” (University of Washington, priority 2000, dated 2002).

The experiment deals with 3T3-L1 adipocyte cells. The experiment in a line: ability of released insulin to regulate 14C-deoxyglucose uptake. In kind it is cell-based. The conditions noted are these: 14C-deoxyglucose uptake by cultured 3T3-L1 adipocyte cells.

insulin: the “biological activity of released insulin” value was “retains its biological activity”.
